Where two headings read alike, the source gives them in different places.
Experiments:
[1] = tested on: SMN FL and SMN Δ7 in spinal muscular atrophy (SMA) patient fibroblasts (GM03813, Coriell); experiment: Quantitative splicing assay (SMN), qPCR; format: cell-based, human; details: Homo sapiens, Fibroblast, 24 h, read-out: SMN2 Splicing FL EC50
Protocol: Spinal muscular atrophy (SMA) patient fibroblasts (GM03813, Coriell) are plated in 96-well plates at 50,000 cells/well. […] Treated cells are lysed and cDNA synthesized using the Fast Advanced Cells-to-Ct kit (Thermofisher A35378) according to the manufacturer's instructions. 2 μL of each cDNA are used in qPCR reactions. […] Reactions are run in a Quant Studio 6 qPCR instrument with default settings.

[2] = tested on: mHTT protein in GM04724 (CAG 70/20) Huntington's disease patient lymphoblast cells; experiment: mHTT protein assay, 2B7-MW1 assay via Mesoscale Discovery (MSD); format: cell-based, human
In short: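 Patient lymphoblasts treated 48 h with compound from 10 μM to 0.6 nM. mHTT quantified by MSD 2B7-MW1 immunoassay, whose signal depends on polyQ expansion and HTT size. Viability measured on a replicate plate by CellTiter Glo.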

MDR1 = experiment: Blood-brain-barrier (BBB) penetration potential via MDCK-MDR1 permeability assay; details: dog, MDCK-MDR1, pH 7.4, MDCK-MDR1: Efflux
[3] = tested on: MDR1-MDCK cell monolayers; experiment: as above
MDR1 (P-gp) = experiment: as above; details: dog; for Papp A→B at 120 min, 5 μM: MDCK-MDR1, pH 7.4, MDCK-MDR1: Papp A-B; for Papp B→A at 120 min, 5 μM: MDCK-MDR1, pH 7.4, MDCK-MDR1: Papp B-A
[4] = tested on: SMN protein in spinal muscular atrophy (SMA) patient fibroblasts (GM03813, Coriell); experiment: SMN protein assay, Mesoscale Discovery (MSD); format: cell-based, human; details: for EC50: read-out: SMN2 protein EC50
In short: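 SMA patient fibroblasts (GM03813) seeded at 7000 cells/well and exposed to compound at 2.5 μM to 0.6 nM for 48 hours. Lysates assayed for SMN by MSD immunoassay, with absolute SMN amount calculated from a per-plate SMN standard curve (1 μg/ml to 19.5 pg/ml).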

[5] = SMA patient fibroblasts GM03813, 24 h, qPCR
[6] = GM04724 Huntington's disease patient lymphoblasts
[7] = SMA patient fibroblasts GM03813, 48 hours, MSD

SMILES	EC50 [1, 5]	EC50 [2, 6]	efflux ratio at 120 min, 5 μM (MDR1; efflux ratio)	MDCK-MDR1: % Recov A-B ([3]; A-B direction)	MDCK-MDR1: % Recov B-A ([3]; B-A direction)	Papp A→B at 120 min, 5 μM (MDR1 (P-gp); A-B direction)	Papp B→A at 120 min, 5 μM (MDR1 (P-gp); B-A direction)	EC50 [4, 7]	SMN2 protein EC50 [4, 7]	mHTT protein EC50 [2, 6]	EC50 ([1]; SMA patient fibroblasts (GM03813))	mHTT protein EC50 ([2]; GM04724 (CAG 70/20) Huntington's disease patient lymphoblasts)	efflux ratio at 120 min, 5 μM (MDR1)	MDCK-MDR1: % Recov A-B ([3]; A-B)	MDCK-MDR1: % Recov B-A ([3]; B-A)	Papp A→B at 120 min, 5 μM (MDR1 (P-gp); A-B)	Papp B→A at 120 min, 5 μM (MDR1 (P-gp); B-A)	EC50 ([4]; SMA patient fibroblasts (GM03813), 48 hours)
CN(c1ccc(-c2ccc(C#N)cc2O)nn1)[C@H]1C[C@@H]2CC[C@@H](N2)[C@H]1F [Compound 38B, 4-(6-(((1R,2R,3S,5S)-2-fluoro-8-azabicyclo[3.2.1]octan-3-yl)(methyl)amino)pyridazin-3-yl)-3-hydroxybenzonitrile]	16 to 50 nM	16 to 50 nM	2	95%	102%	18.9 ×10⁻⁶ cm/s	47.1 ×10⁻⁶ cm/s	16 to 50 nM	–	–	–	–	–	–	–	–	–	–
CN(c1ccc(-c2ccc(C#N)cc2O)nn1)[C@@H]1C[C@H]2CC[C@H](N2)[C@@H]1F [Compound 38A, 4-(6-(((1S,2S,3R,5R)-2-fluoro-8-azabicyclo[3.2.1]octan-3-yl)(methyl)amino)pyridazin-3-yl)-3-hydroxybenzonitrile]	16 to 50 nM	101 to 500 nM	3	83%	85%	13 ×10⁻⁶ cm/s	39.2 ×10⁻⁶ cm/s	–	E (501 ≤ E ≤ 10.000)	–	–	–	–	–	–	–	–	–
CN(c1ccc(-c2cc3ncn(CC(F)(F)F)c(=O)c3cc2O)nn1)[C@H]1C[C@@H]2CCC[C@@H](N2)[C@H]1F [Compound 58B, 7-(6-(((1R,2R,3S,5S)-2-fluoro-9-azabicyclo[3.3.1]nonan-3-yl)(methyl)amino)pyridazin-3-yl)-6-hydroxy-3-(2,2,2-trifluoroethyl)quinazolin-4(3H)-one]	0.01 to 15 nM	–	126	76%	85%	0.43 ×10⁻⁶ cm/s	53.9 ×10⁻⁶ cm/s	0.01 to 15 nM	–	E (501 ≤ E ≤ 10.000)	–	–	–	–	–	–	–	–
Cc1ccc(-c2ccc(-c3ccc(N(C)[C@@H]4C[C@H]5CCC[C@H](N5)[C@@H]4F)nn3)c(O)c2)nn1 [Compound 27A, 2-(6-(((1S,2S,3R,5R)-2-fluoro-9-azabicyclo[3.3.1]nonan-3-yl)(methyl)amino)pyridazin-3-yl)-5-(6-methylpyridazin-3-yl)phenol]	51 to 100 nM	101 to 500 nM	43	90%	86%	1.08 ×10⁻⁶ cm/s	46.6 ×10⁻⁶ cm/s	0.01 to 15 nM	–	–	–	–	–	–	–	–	–	–
CC#Cc1ccc(-c2ccc(N(C)[C@@H]3C[C@H]4CC[C@H](N4)[C@@H]3F)nn2)c(O)c1 (single isomer, unassigned) [Compound 30A]	51 to 100 nM	16 to 50 nM	2	35%	55%	11.1 ×10⁻⁶ cm/s	19.7 ×10⁻⁶ cm/s	0.01 to 15 nM	–	–	–	–	–	–	–	–	–	–
CN(c1ccc(-c2cc(F)c(-n3ccnn3)cc2O)nn1)[C@H]1C[C@@H]2CC[C@H]([C@H]1F)N2C [Compound 103B, 4-fluoro-2-(6-(((1R,2R,3S,5S)-2-fluoro-8-methyl-8-azabicyclo[3.2.1]octan-3-yl)(methyl)amino)pyridazin-3-yl)-5-(1H-1,2,3-triazol-1-yl)phenol]	–	–	–	–	–	–	–	–	–	–	101 to 500 nM	E (501 ≤ E ≤ 10.000)	4	95%	94%	12.6 ×10⁻⁶ cm/s	49.1 ×10⁻⁶ cm/s	51 to 100 nM

Source: US12509460B2 (Skyhawk Therapeutics, Inc., priority 2019, dated 2025)
